Experimental data taken from US10682359B2, “Inhibitors of glucose kinases, along with methods of their formation and use” (University of South Carolina, priority 2017, dated 2020).
Like-named read-outs stand apart in the source and are kept apart here.

Assays:
[1] = target: T1, Trypanosoma cruzi glucokinase (TcGlcK) (Trypanosoma cruzi, UniProt Q4E4E1); assay: TcGlcK-HsΔG6PDH-diaphorase coupled assay, IC50 determination; assay type: biochemical
T1 construct: made in house
T1 sequence (Q4E4E1 1-376): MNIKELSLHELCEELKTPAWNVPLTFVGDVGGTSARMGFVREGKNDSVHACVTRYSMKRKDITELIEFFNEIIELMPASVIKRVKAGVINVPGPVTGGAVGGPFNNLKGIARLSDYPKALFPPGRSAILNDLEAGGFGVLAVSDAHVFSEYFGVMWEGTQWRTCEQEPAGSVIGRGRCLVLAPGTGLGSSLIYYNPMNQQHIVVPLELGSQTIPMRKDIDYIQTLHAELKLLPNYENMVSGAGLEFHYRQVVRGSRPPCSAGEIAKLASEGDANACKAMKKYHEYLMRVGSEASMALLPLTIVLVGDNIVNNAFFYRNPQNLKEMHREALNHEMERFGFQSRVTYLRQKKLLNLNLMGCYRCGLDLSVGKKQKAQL
Experimental: The TcGlcK assay was performed through its linking with the HsΔG6PDH-diaphorase enzyme-coupled assay system as schematically illustrated in FIG. 1. All of the compounds were tested in quadruplicate using the JANUS-MDT liquid handler equipped with a 384-tip head that was used to transfer 22 μL of a reagent mix [130 U/mL HsΔG6PDH, 100 mM NADP+, 1 kU/mL diaphorase, 10 mM resazurin, and 19 μM TcGlcK in a reaction buffer (see below)], 0.5 μL of 1 mM compounds in 100% DMSO (from the daughter plate, see above), and 2.5 μL of a substrate mix [4 mM D-glucose and 6 mM ATP in a reaction buffer] to a 384-well plate (total volume per well was 25 μL). The reaction buffer was 0.1 M triethanolamine (pH 8.5), 8.0 mM MgCl2, and 0.01% (v/v) Triton X-100. The final assay concentrations (FACs) were 0.5 U/mL HsΔG6PDH, 100 μM NADP+, 1 U/mL diaphorase, 20 μM resazurin, 2.5 nM TcGlcK, 20 μM compounds (from the daughter plate, see above), 0.4 mM D-glucose, 0.6 mM ATP, 0.1 M triethanolamine (pH 8.5), 8 mM MgCl2, and 0.01% (v/v) Triton X-100. […] The assay was carried out using 384-well, black, v-bottom microplates (Greiner Bio-One) with a final volume of 25 μL per well. Pipetting steps were performed with a liquid handler having a 384-tip head, JANUS-MDT from Perkin Elmer (Waltham, Mass.). Compounds that gave rise to TcGlcK enzyme activity in the presence of 20 μM compound (EA20) that results in less than 65%) were categorized as unconfirmed hits to proceed as candidates. The methodology is schematically illustrated in FIG. 2.
Determination of the IC50 values was performed by the TcGlcK—HsΔG6PDH—diaphorase coupled assay, in which reaction velocities were obtained at various concentrations of inhibitors. In 96-well plates, solutions of the inhibitors were prepared by serial dilution. Briefly, column 1 served as a control having an inhibitor concentration of zero; however, columns 2 through 12 on a given row had 11 different inhibitor concentrations from a serial dilution. Using the JANUS-MDT liquid handler with a 96-tip head, assay reactions were carried out in quadruplicate in a 384-well plate and the following components were transferred per well: 44 μL of a reagent mix [130 U/mL HsΔG6PDH, 100 mM NADP^+, 1 kU/mL diaphorase, 10 mM resazurin, and 19 μM TcGlcK in a reaction buffer (0.1 M triethanolamine (pH 8.5), 8.0 mM MgCl2, and 0.01% (v/v) Triton X-100)], 1 uL of 1 mM compound solutions in 100% DMSO, and 5 μL of a substrate mix [4 mM D-glucose and 6 mM ATP in the same reaction buffer]. The Envision microplate reader (PerkinElmer) was used to monitor the formation of resorufin in the fluorescence mode (λex=530 nm; λem=615 nm). Reaction velocities were measured and normalized by the controls. Values of IC50 were calculated using the GraphPad Prism 6.0 software from nonlinear regression of the data.

[2] = system: T. cruzi infective form (amastigotes and trypomastigotes) (Tulahuen strain) in NIH-3T3 fibroblasts; assay: T. cruzi viability assay in NIH-3T3 fibroblasts; details: for EC50 / viability at 80 µM: Trypanosoma cruzi, TULAHUEN, NIH3T3; for Trypanocidal activity class: class by % viability at 80 μM; for in vitro T. cruzi EC50 compared with benznidazole: infective form co-cultured in NIH-3T3 fibroblasts
[3] = TcGlcK - inhibitor IC50, enzymatic coupled assay, read-out: IC50

| SMILES | viability at 80 µM [2] [%] | also measured |
| --- | --- | --- |
| COc1ccc(S(=O)(=O)Nc2cccc(Br)c2)c(Cl)c1Cl [Compound 1a] | 0 | IC50 [1, 3]: 7.2 µM; EC50 [2]: 13.3 ± 0.3 µM; Trypanocidal activity class [2]: active |
| COc1ccc(S(=O)(=O)Nc2cccc(SC)c2)cc1F [Compound 1b] | 0 | – |
| COc1cc(S(=O)(=O)Nc2cccc(Cl)c2C)c(C)cc1C [Compound 1c] | 0 | – |
| COc1ccc(NS(=O)(=O)c2ccc(Cl)c(C)c2Cl)cc1 [Compound 1d] | 0 | – |
| COc1ccc(S(=O)(=O)Nc2ccc(F)c(F)c2)cc1I [Compound 1e] | 0 | – |
| COc1ccc(S(=O)(=O)Nc2ccc3ccccc3c2)cc1Cl [Compound 1f] | 0 | – |
| COc1ccc(S(=O)(=O)Nc2ccc(Br)cc2F)cc1Cl [Compound 1g] | 0 | – |
| CCOc1cc(S(=O)(=O)Nc2ccc(Cl)cc2)ccc1F [Compound 1h] | 0 | – |
| CCOc1ccc(S(=O)(=O)Nc2c(F)cccc2F)cc1Cl [Compound 1i] | 4.9 ± 4.7 | – |
| CCOc1ccc(S(=O)(=O)Nc2cccc(Cl)c2C)cc1C [Compound 1j] | 0 | – |
| COc1ccc(S(=O)(=O)Nc2cc(Cl)ccc2Cl)c(C)c1C [Compound 1k] | 0 | – |
| COc1ccc(S(=O)(=O)Nc2ccccc2)cc1F [Compound 1l] | 34.6 ± 4.3 | – |
| O=S(=O)(Nc1ccc(O)cc1)c1cc(Cl)ccc1Cl [Compound 1m] | 0.6 ± 2.9 | – |
| COc1ccc(F)cc1S(=O)(=O)Nc1ccc(Cl)cc1 [Compound 1n] | 2.4 ± 7.4 | – |
| O=C1C(=Cc2ccco2)C(=O)N(c2ccccc2)C(=O)N1c1ccccc1 [Compound 2a] | 66.5 ± 22.3 | IC50 [1]: 0.6 µM |
| Cc1cc(N2CCOCC2)ccc1/C=C1/C(=O)NC(=O)N(c2ccc3c(c2)OCO3)C1=O [Compound 2b] | 57 ± 2.8 | IC50 [1]: 1.1 µM |
| CN1C(=O)C(=Cc2ccc(N(C)C)cc2)C(=O)N(C)C1=O [Compound 2c] | 79 ± 4 | IC50 [1]: 5.5 µM |
| COc1ccc(Br)cc1/C=C1/C(=O)NC(=O)N(CCC2=CCCCC2)C1=O [Compound 2d] | 88.7 ± 15.1 | IC50 [1]: 13.7 µM |
| O=C1NC(=O)C(=Cc2ccc(N3CCOCC3)cc2)C(=O)N1 [Compound 2e] | 88 ± 9.4 | IC50 [1]: 1.7 µM |
| O=C1NC(=O)C(=Cc2ccc(Br)s2)C(=O)N1 [Compound 2f] | 74.2 ± 5.3 | IC50 [1]: 2.4 µM |

| SMILES | viability at 80 µM [2] [%] | also measured |
| --- | --- | --- |
| O=C1NC(=O)C(=Cc2ccc(O)c(O)c2)C(=O)N1 [Compound 2g] | 62.8 ± 11.6 | IC50 [1]: 4.2 µM |
| O=C1NC(=O)C(=Cc2ccc3c(c2)OCO3)C(=O)N1 [Compound 2h] | 81.2 ± 13.7 | IC50 [1]: 8.7 µM |
| CCOc1ccc([C@@H]2Oc3c(Cl)cc(Cl)cc3C=C2[N+](=O)[O-])cc1OCC [Compound 4a] | 0 | IC50 [1, 3]: 4.8 µM; EC50 [2]: 2.98 ± 0.227 µM; Trypanocidal activity class [2]: active; in vitro T. cruzi EC50 compared with benznidazole [2]: very similar in vitro T. cruzi EC50 values to that of benznidazole |
| CCOc1ccc([C@@H]2Oc3ccc(Br)cc3C=C2[N+](=O)[O-])cc1OC [Compound 4b] | 0 | IC50 [1, 3]: 6.5 µM; EC50 [2]: 2.17 ± 0.045 µM; Trypanocidal activity class [2]: active; in vitro T. cruzi EC50 compared with benznidazole [2]: very similar in vitro T. cruzi EC50 values to that of benznidazole |
| COc1ccc([C@@H]2Oc3ccccc3C=C2[N+](=O)[O-])cc1OC [Compound 4c] | 0 | IC50 [1, 3]: 53.2 µM |
| CCOc1ccc([C@@H]2Oc3ccccc3C=C2[N+](=O)[O-])cc1OCC [Compound 4d] | 0 | IC50 [1, 3]: 69.1 µM |
| O=[N+]([O-])C1=Cc2c(ccc3ccccc23)O[C@H]1c1ccc2c(c1)OCO2 [Compound 4e] | 0 | – |
| COc1ccc(Br)cc1[C@H]1C(C#N)=C(N)Oc2c1c(C)nn2-c1ccccc1 [Compound 5a] | 0 | IC50 [1, 3]: 18.8 µM |
| Cc1nn(-c2ccccc2)c2c1[C@@H](c1ccc(F)cc1)C(C#N)=C(N)O2 [Compound 5b] | 87.1 ± 3.3 | IC50 [1, 3]: 17.1 µM |
| Cc1ccc(-n2nc(C)c3c2OC(N)=C(C#N)[C@H]3c2ccoc2)cc1 [Compound 5c] | 80.6 ± 3.9 | – |
| Cc1nn(-c2cccc(Cl)c2)c2c1[C@@H](c1cc([N+](=O)[O-])ccc1Cl)C(C#N)=C(N)O2 [Compound 5d] | 0 | – |
| Cc1cc2c(c(O)c1-c1c(C)cc3c(c1O)C(=CNc1ccc(S(=O)(=O)NC(=N)N)cc1)C(=O)C(O)=C3C(C)C)C(=CNc1ccc(S(=O)(=O)NC(=N)N)cc1)C(=O)C(O)=C2C(C)C [Compound 6a] | 0 | IC50 [1, 3]: 13.2 µM; EC50 [2]: 8.62 ± 0.493 µM; Trypanocidal activity class [2]: active |
| Cc1cc2c(c(O)c1-c1c(C)cc3c(c1O)/C(=C/Nc1cccc4c(N)cccc14)C(=O)C(O)=C3C(C)C)/C(=C/Nc1cccc3c(N)cccc13)C(=O)C(O)=C2C(C)C [Compound 6b] | 1.7 ± 2.7 | IC50 [1, 3]: 16.5 µM |
| Cc1cc2c(c(O)c1-c1c(C)cc3c(c1O)/C(=C/Nc1c(O)cc(S(=O)(=O)O)c4ccccc14)C(=O)C(O)=C3C(C)C)/C(=C/Nc1c(O)ccc3c(S(=O)(=O)O)cccc13)C(=O)C(O)=C2C(C)C [Compound 6c] | 20.4 ± 10.3 | IC50 [1, 3]: 30.2 µM |
| Cc1cc2c(c(O)c1-c1c(C)cc3c(c1O)/C(=C/Nc1ccc(Cc4ccc(N)cc4)cc1)C(=O)C(O)=C3C(C)C)/C(=C/Nc1ccc(Cc3ccc(N)cc3)cc1)C(=O)C(O)=C2C(C)C [Compound 6d] | 63.3 ± 0.4 | IC50 [1, 3]: 61.6 µM |
| c1ccc([C@@H]2CCCN2)nc1 [Compound 7] | 84.3 ± 0.5 | – |
| O=C(O)C1Nc2c(I)cccc2C2C=CCC12 (stereo not drawn) [Compound 8] | 44.3 ± 5.1 | – |
| Nc1c(C(=O)c2cccc([N+](=O)O)c2)sc2nc(-c3cccnc3)ccc12 [Compound 9] | 52.7 ± 7.9 | – |
| COc1ccc(C(=O)Nc2sc3c(c2C(N)=O)CCCCC3)cc1OC [Compound 10] | 50.5 ± 3.4 | – |
| N#Cc1ccc(-c2cccnc2)nc1SCC(=O)O [Compound 11] | 86.5 ± 0.9 | – |
